Patent publication US20090088340A1, “METHODS FOR PREDICTING THE REDUCTION/OXIDATION (REDOX) REACTION ACTIVITY OF METAL COMPLEXES” (WESTERN CAROLINA UNIVERSITY, priority 2007, published 2009)
Read-outs that look alike come from different tables or passages of the source. Marks after values point to notes of the source that are not given here.

Experiments:
[1] = Metal/fluoride association from F^− 19F NMR transverse relaxation enhancement (CPMG); format: physicochemical; settings: for kapp,X− (Flouride Association Reaction) / ΔH^‡ (Flouride Association Reaction): iron(III) complexes; for kapp,X− (Flouride Association Reaction) / kapp,X− (Anion Binding Data): 25° C., 90% H2O/10% D2O; for ΔH^‡ (Flouride Association Reaction): activation enthalpy; for ΔH^‡ (Anion Binding Data): manganese(II) complexes; for ΔH^‡ (Anion Binding Data) / kapp,X− (Anion Binding Data): metal/F^− association
From the text: CPMG is the standard technique for measuring transverse NMR relaxation times (T2). See, for example, Braun et al., “150 and More Basic NMR Experiments,” Wiley-VCH Weinheim, 1998, page 159.
Rate constants for metal/probe association reactions can be related directly to the effects of the metal complex on the NMR relaxation rates of probe nuclei.
R2,obs−R2,dia=kapp,F−[M] (6)
where R2,dia is the relaxation rate in diamagnetic solution and kapp,F− is the apparent second order rate constant for metal/F^− association. The effects of eleven paramagnetic metal complexes, Fe^IIIEDTA(H2O)^−, Fe^IIIEDTA(OH)^2−, Fe^IIIPDTA^−, Fe^IIIDTPA^2−, Fe^III2O(TTHA)^2−, Fe^III(CN)6^3−, Mn^IIEDTA(H2O)^2−, Mn^IIPDTA^2−, Mn^IIβ-EDDADP^2−, Mn^IIPO4^−, and Cu/Zn SOD on F^− ion ^19F NMR transverse relaxation rates (R2=1/T2) were studied in aqueous solutions as a function of temperature.
Without being bound to any one theory, the curvature of the plot can arise from a similarity in the magnitudes of outer-sphere and inner-sphere contributions to relaxation (R2,OS and R2,IS). See Dwek, R. A., Nuclear Magnetic Resonance in Biochemistry, Clarendon, Oxford, 1973. […] See Dwek, R. A., Nuclear Magnetic Resonance in Biochemistry, Clarendon, Oxford, 1973. To estimate the contribution of R2,OS, relaxation enhancement of the ^19F resonance of the trifluoroacetate anion (tfa) by Fe^IIIDTPA^2− was measured. R2,IS for the tfa resonance should be negligible due to the low basicity of the anion and the absence of a through bond pathway for magnetic interaction between the paramagnetic center and the ^19F nuclei. For the tfa resonance, R2,obs decreased with increasing temperature consistent with an outer-sphere interaction.
where α, β, and γ are constants. The γ term for F^− relaxation in Equation 7 was set equal to the slope of the least squares line for the tfa data, and ΔH^‡, α, and β were refined to give the curved trend line following the F^− data in FIG. 6. Dashed lines (a) and (b) in FIG. 6 represent the predicted outer-sphere and inner-sphere contributions to the relaxation rate, respectively. The 25° C. association rate constant and activation enthalpy in Table 1 (and used in FIG. 2) are from this refinement.

[2] = cited from earlier work; for kapp,O2− (Superoxide Reaction): iron(III) complexes, aqueous solution, literature values (footnotes b, c, d, f); for kapp,O2,A (Superoxide Reaction Data): full value printed in cell
[3] = Reaction of metal complexes with superoxide (pulse radiolysis and literature rate data); format: physicochemical; settings: manganese(II) complexes, pulse radiolysis; for kapp,O2,B × 10^−2 (Superoxide Reaction Data): printed value is k × 10^−2; for kapp,O2,A × 10^−7 (Superoxide Reaction Data): printed value is k × 10^−7
Description: In addition, the rates at which O2.^− reacts with Fe^IIIPDTA^−, Mn^IIEDTA(H2O)^2−, Mn^IIPDTA^2−, and Mn^IIβ-EDDADP^2− were determined by pulse radiolysis. […] The data for the SOD enzyme was previously reported. See Viglino et al., J. Magn. Res., 1979, 34, 265. These reactivity patterns are consistent with literature precedents for similar complexes.
Rapid reactions of Fe^3+ with superoxide (O2.^−) appear to occur via inner-sphere mechanisms where metal/O2.^− association is rate limiting. Under this scenario, rates of metal/O2.^− reactions are expected to correlate with rates at which the metal complexes coordinate F^−.
In addition to metal/F^− association data, FIG. 2 includes published rate data for reactions of a water soluble manganese(III) porphyrin (Mn^IIITM-2-PyP^5+). One of the gray squares in FIG. 2 compares the rate of metal/MeOPH association to the catalytic rate constant for O2.^− dissmutation (kcat) for Mn^IIITM-2-PyP^5+. See Summers et al., Inorg. Chem., 2001, 40, 6547. Values of kcat for manganese(III) porphyrins are thought to be limited by rates of Mn^3+ reduction. See Batinic-Haberle et al., Inorg. Chem., 1999, 38, 4011-4022.

[4] = trend line of FIG. 8; pH 4.0 to 9.2
Description: While Fe^IIIEDTA(OH)^2− is usually formed by deprotonation of coordinated water, its formation can also be thought of (in thermodynamic terms) as a ligand exchange. To investigate the thermodynamics of the formation of Fe^IIIEDTA(OH)^2−, the reaction of F^− with Fe^IIIEDTA(H2O)^− was studied as a function of pH. For Fe^IIIEDTA(H2O)^−, relaxation enhancements were measured for thirteen buffer conditions, having pH values ranging from 4.0 to 9.2. […] In this pH range, F^− 19F relaxation enhancement is governed by two protic equilibria, hydrolysis of Fe^IIIEDTA(H2O)^− and protonation of F^−, as described by Equations 9 and 10:
Fitting the data at pH>6 gives the thermodynamic equilibrium data for hydroxide binding.

[5] = MeOPH^− association; from Summers et al. 2001; cited from earlier work
SOD = SOD (Bos taurus, UniProt P00442); settings: from Viglino et al. 1979; cited from earlier work
Cu/Zn SOD [6] = molecular target: T1, Cu/Zn SOD (Homo sapiens, UniProt P00441); settings: 100 μM; Huang et al., Nature 2000; cited from earlier work
Cu/Zn SOD [7] = molecular target: T1, Cu/Zn SOD; assay: Reaction of Cu/Zn SOD with superoxide in the presence of an inhibitor; format: biochemical; settings: 100 μM, 20 mM phosphate buffered saline pH 7.2 (neutral conditions)
Description: SOD was added to give an NMR relaxation rate of 28 s^−1. […] See Huang et al., Nature, 2000, 407, 390-395. […] It was also determined that under these conditions, reaction of the enzyme with superoxide was not inhibited.

T1 sequence (P00441 whole entry): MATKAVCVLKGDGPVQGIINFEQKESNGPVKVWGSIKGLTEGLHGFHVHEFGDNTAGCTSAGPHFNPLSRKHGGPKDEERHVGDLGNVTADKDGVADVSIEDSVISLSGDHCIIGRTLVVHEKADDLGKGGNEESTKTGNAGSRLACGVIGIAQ
SOD, sequence (P00442 2-152 limits assumed): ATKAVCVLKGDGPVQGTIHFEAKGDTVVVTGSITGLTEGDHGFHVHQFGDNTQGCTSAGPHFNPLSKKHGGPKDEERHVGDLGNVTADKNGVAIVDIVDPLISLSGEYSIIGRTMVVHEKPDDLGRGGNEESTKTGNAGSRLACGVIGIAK

For `O=C([O-])CN(CCN(CC(=O)[O-])CC(=O)[O-])CCN(CC(=O)[O-])CC(=O)[O-].[Fe+3]` [Fe^IIIDTPA^2−, iron (III) diethylenetriaminepentaacetate], the “kapp,X− (Flouride Association Reaction)” value ([1]; pH 6) is given as 240 M⁻¹ s⁻¹, the “ΔH^‡ (Flouride Association Reaction)” value [1] is given as 5.26 kcal/mol and the “kapp,O2− (Superoxide Reaction)” value [2] is given as 6 × 10^3 (c) M^−1s^−1.
With `O.O=C([O-])CN(CCN(CC(=O)[O-])CC(=O)[O-])CC(=O)[O-].[Mn+2]` [Mn^IIEDTA(H2O)^2−] the “ΔH^‡ (Anion Binding Data)” value [1] was 7.41 kcal/mol, the “kapp,X− (Anion Binding Data)” value ([1]; pH 7) was 60000 M⁻¹ s⁻¹ and the “kapp,O2,B × 10^−2 (Superoxide Reaction Data)” value [3] was 4.0 ± 0.8 s^−1. The “kapp,O2,A × 10^−7 (Superoxide Reaction Data)” value [3] was 1.24 ± 0.24 M^−1s^−1.
For `O=P([O-])([O-])[O-].[Mn+2]` [Mn^IIPO4 ^−], the “ΔH^‡ (Anion Binding Data)” value [1] is listed as 10 kcal/mol, the “kapp,X− (Anion Binding Data)” value ([1]; pH 6) is listed as 1.8 × 10^6 (b) M^−1s^−1 and the “kapp,O2,A (Superoxide Reaction Data)” value ([2]; pH 6, from Cabelli and Bielski) is listed as 5.0 × 10^7 (b,c) M^−1s^−1.
For `O.O=C([O-])CN(CCN(CC(=O)[O-])CC(=O)[O-])CC(=O)[O-].[Fe+3]` [Fe^IIIEDTA(H2O)^−, iron (III) ethylenediamine-N,N,N″,N″-tetraacetic acid hydrate], the “apparent rate constant for HF association” value [4] was 93000 M⁻¹ s⁻¹, the “kapp,X− (Flouride Association Reaction)” value ([1]; pH 6) was 93000 M⁻¹ s⁻¹ and the “ΔH^‡ (Flouride Association Reaction)” value [1] was 9.32 kcal/mol. For the same molecule, the “apparent rate constant for F^− association” value ([1]; trend line of FIG. 8, pH 4.0 to 9.2) was 4e+06 M⁻¹ s⁻¹ and the “kapp,O2− (Superoxide Reaction)” value [2] was 1.9 × 10^6 (f) M^−1s^−1.
In the case of `O.O.O.O.O.O.[Mn+2]` [Mn^II(H2O)6^2+], the “kapp,X− (Anion Binding Data)” value [5] is listed as 5.8 × 10^6 (e) M^−1s^−1, the “ΔH^‡ (Anion Binding Data)” value [5] is listed as 47 ^(e) kJ/mol and the “kapp,O2,A (Superoxide Reaction Data)” value ([2]; from Pick-Kaplan and Rabini) is listed as 1.1 × 10^8 (f) M^−1s^−1.
In the case of `F` [fluoride, fluoride anion], the “association constant for fluoride binding” value (SOD) is given as 1.2 M⁻¹.
For `O=C([O-])CCN(CCN(CCC(=O)[O-])CC(=O)[O-])CC(=O)[O-].[Mn+2]` [Mn^IIβ-EDDADP^2−], the “ΔH^‡ (Anion Binding Data)” value [1] was 5.26 kcal/mol, the “kapp,X− (Anion Binding Data)” value ([1]; pH 7) was 130000 M⁻¹ s⁻¹ and the “kapp,O2,B × 10^−2 (Superoxide Reaction Data)” value [3] was 3.5 ± 0.7 s^−1. The “kapp,O2,A × 10^−7 (Superoxide Reaction Data)” value [3] was 1.95 ± 0.40 M^−1s^−1.
For `O=C([O-])CN(CCN(CCN(CC(=O)[O-])CC(=O)[O-])CC(=O)[O-])CCN(CC(=O)[O-])CC(=O)[O-].[Fe+3].[Fe+3].[O-2]` [Fe^III2O(TTHA)^2−], the “kapp,X− (Flouride Association Reaction)” value ([1]; pH 6) is given as 12 M⁻¹ s⁻¹, the “ΔH^‡ (Flouride Association Reaction)” value [1] is given as 9.32 kcal/mol and the “kapp,O2− (Superoxide Reaction)” value [2] is given as 1.2 × 10^4 (d) M^−1s^−1.
In the case of `COc1cc2c(cc1O)CC[C@@H]1[C@@H]2CC[C@]2(C)[C@@H](O)CC[C@@H]12` [Complex 2ME2, 2-methoxyestradiol], the “inhibition of Cu/Zn SOD previously reported” value (Cu/Zn SOD [6]) is listed as “complete inhibition” and the “reaction of the enzyme with superoxide” value (Cu/Zn SOD [7]) is listed as “not inhibited”.
